Experimental data reported in PubChem BioAssay (NCI).
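How tested: cells in 96-well plates exposed to compound for 48 hours at five concentrations. GI50 is the concentration that inhibits growth by half. TGI is the concentration that stops growth completely.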

Legend:
Test in all cases: NCI tumour cell line growth inhibition, 48 h
[1] = test system: 786-0 renal
[2] = test system: A498 renal
[3] = test system: A549 NSCLC
[4] = test system: ACHN renal
[5] = test system: BT-549 breast
[6] = test system: CAKI-1 renal
[7] = test system: CCRF-CEM leukemia
[8] = test system: COLO 205 colon
[9] = test system: DU-145 prostate
[10] = test system: EKVX NSCLC
[11] = test system: HCT-116 colon
[12] = test system: HCT-15 colon
[13] = test system: HL-60(TB) leukemia
[14] = test system: HOP-62 NSCLC
[15] = test system: HOP-92 NSCLC
[16] = test system: HS 578T breast
[17] = test system: HT29 colon
[18] = test system: IGROV1 ovarian
[19] = test system: KM12 colon
[20] = test system: LOX IMVI melanoma
[21] = test system: M14 melanoma
[22] = test system: MALME-3M melanoma
[23] = test system: MCF7 breast
[24] = test system: MDA-MB-231 breast
[25] = test system: MDA-MB-435
[26] = test system: MOLT-4 leukemia
[27] = test system: NCI-H226 lung
[28] = test system: NCI-H23 lung
[29] = test system: NCI-H460 lung
[30] = test system: NCI-H522 lung
[31] = test system: NCI/ADR-RES ovarian
[32] = test system: OVCAR-3 ovarian
[33] = test system: OVCAR-4 ovarian
[34] = test system: OVCAR-5 ovarian
[35] = test system: OVCAR-8 ovarian
[36] = test system: PC-3 prostate
[37] = test system: RPMI-8226 leukemia
[38] = test system: RXF 393 renal
[39] = test system: SF-268 CNS
[40] = test system: SF-295 CNS
[41] = test system: SF-539 CNS
[42] = test system: SK-MEL-2 melanoma
[43] = test system: SK-MEL-28 melanoma
[44] = test system: SK-OV-3 ovarian
[45] = test system: SN12C renal
[46] = test system: SNB-19 CNS
[47] = test system: SW-620 colon
[48] = test system: T-47D breast
[49] = test system: TK-10 renal
[50] = test system: U251 CNS
[51] = test system: UACC-257 melanoma
[52] = test system: UACC-62 melanoma
[53] = test system: UO-31 renal
[54] = test system: HCC-2998 colon
[55] = test system: K-562 leukemia
[56] = test system: SK-MEL-5 melanoma
[57] = test system: SNB-75 CNS

Cc1ccc(-c2cc(/C=N/O)on2)cc1
GI50 [1]: 50.4 µM
TGI [1]: > 100 µM
GI50 [2]: 41.3 µM
TGI [2]: > 100 µM
GI50 [3]: 51 µM
TGI [3]: > 100 µM
GI50 [4]: 54.8 µM
TGI [4]: > 100 µM
GI50 [5]: 49.5 µM
TGI [5]: > 100 µM
GI50 [6]: 43.9 µM
TGI [6]: > 100 µM
GI50 [7]: 46.9 µM
TGI [7]: > 100 µM
GI50 [8]: 49.9 µM
TGI [8]: > 100 µM
GI50 [9]: 68.7 µM
TGI [9]: > 100 µM
GI50 [10]: 43.3 µM
TGI [10]: > 100 µM
GI50 [11]: 71.4 µM
TGI [11]: > 100 µM
GI50 [12]: 64.6 µM
TGI [12]: > 100 µM
GI50 [13]: 26.5 µM
TGI [13]: > 100 µM
GI50 [14]: > 100 µM
TGI [14]: > 100 µM
GI50 [15]: 47.6 µM
TGI [15]: > 100 µM
GI50 [16]: > 100 µM
TGI [16]: > 100 µM
GI50 [17]: 48.4 µM
TGI [17]: > 100 µM
GI50 [18]: 63.8 µM
TGI [18]: > 100 µM
GI50 [19]: 35.6 µM
TGI [19]: > 100 µM
GI50 [20]: 53.3 µM
TGI [20]: > 100 µM
GI50 [21]: 65.4 µM
TGI [21]: > 100 µM
GI50 [22]: > 100 µM
TGI [22]: > 100 µM
GI50 [23]: 55.1 µM
TGI [23]: > 100 µM
GI50 [24]: > 100 µM
TGI [24]: > 100 µM
GI50 [25]: 52.1 µM
TGI [25]: > 100 µM
GI50 [26]: 21.9 µM
TGI [26]: > 100 µM
GI50 [27]: 36.2 µM
TGI [27]: > 100 µM
GI50 [28]: 73.1 µM
TGI [28]: > 100 µM
GI50 [29]: 63.6 µM
TGI [29]: > 100 µM
GI50 [30]: 62.4 µM
TGI [30]: > 100 µM
GI50 [31]: 45.4 µM
TGI [31]: > 100 µM
GI50 [32]: 58.2 µM
TGI [32]: > 100 µM
GI50 [33]: > 100 µM
TGI [33]: > 100 µM
GI50 [34]: > 100 µM
TGI [34]: > 100 µM
GI50 [35]: > 100 µM
TGI [35]: > 100 µM
GI50 [36]: 63 µM
TGI [36]: > 100 µM
GI50 [37]: 36.9 µM
TGI [37]: > 100 µM
GI50 [38]: > 100 µM
TGI [38]: > 100 µM
GI50 [39]: > 100 µM
TGI [39]: > 100 µM
GI50 [40]: 33.9 µM
TGI [40]: > 100 µM
GI50 [41]: > 100 µM
TGI [41]: > 100 µM
GI50 [42]: 97.3 µM
TGI [42]: > 100 µM
GI50 [43]: > 100 µM
TGI [43]: > 100 µM
GI50 [44]: > 100 µM
TGI [44]: > 100 µM
GI50 [45]: > 100 µM
TGI [45]: > 100 µM
GI50 [46]: > 100 µM
TGI [46]: > 100 µM
GI50 [47]: 65.7 µM
TGI [47]: > 100 µM
GI50 [48]: 29.5 µM
TGI [48]: > 100 µM
GI50 [49]: 63.8 µM
TGI [49]: > 100 µM
GI50 [50]: 54.3 µM
TGI [50]: > 100 µM
GI50 [51]: 67.5 µM
TGI [51]: > 100 µM
GI50 [52]: 38.9 µM
TGI [52]: > 100 µM
GI50 [53]: 36.4 µM
TGI [53]: > 100 µM

CC(C)N(C[C@H]1O[C@@H](n2cnc3c(N)ncnc32)[C@H](O)[C@@H]1O)C1CC(CCc2nc3ccc(C(C)(C)C)cc3[nH]2)C1 (stereo partly drawn)
GI50 [1]: > 100 µM
TGI [1]: > 100 µM
GI50 [2]: 29.6 µM
TGI [2]: > 100 µM
GI50 [3]: > 100 µM
TGI [3]: > 100 µM
GI50 [4]: > 100 µM
TGI [4]: > 100 µM
GI50 [5]: > 60.5 µM
TGI [5]: > 100 µM
GI50 [6]: > 100 µM
TGI [6]: > 100 µM
GI50 [7]: > 49.3 µM
TGI [7]: > 84.4 µM
GI50 [8]: 38.5 µM
TGI [8]: > 100 µM
GI50 [9]: > 100 µM
TGI [9]: > 100 µM
GI50 [54]: > 100 µM
TGI [54]: > 100 µM
GI50 [11]: > 68 µM
TGI [11]: > 100 µM
GI50 [12]: > 100 µM
TGI [12]: > 100 µM
GI50 [13]: > 65.9 µM
TGI [13]: > 100 µM
GI50 [14]: > 100 µM
TGI [14]: > 100 µM
GI50 [15]: 31.4 µM
TGI [15]: > 100 µM
GI50 [16]: > 76.5 µM
TGI [16]: > 100 µM
GI50 [17]: 94.8 µM
TGI [17]: > 100 µM
GI50 [18]: > 72.4 µM
TGI [18]: > 100 µM
GI50 [55]: 33.4 µM
TGI [55]: > 75.3 µM
GI50 [19]: > 100 µM
TGI [19]: > 100 µM
GI50 [20]: > 71.5 µM
TGI [20]: > 100 µM
GI50 [21]: > 72.2 µM
TGI [21]: > 100 µM
GI50 [22]: 20 µM
TGI [22]: > 60.8 µM
GI50 [23]: 33.2 µM
TGI [23]: > 100 µM
GI50 [24]: 69.8 µM
TGI [24]: > 100 µM
GI50 [25]: > 54.7 µM
TGI [25]: > 100 µM
GI50 [26]: 30.9 µM
TGI [26]: > 81.3 µM
GI50 [27]: > 100 µM
TGI [27]: > 100 µM
GI50 [28]: > 100 µM
TGI [28]: > 100 µM
GI50 [29]: > 100 µM
TGI [29]: > 100 µM
GI50 [30]: > 75.9 µM
TGI [30]: > 100 µM
GI50 [31]: > 100 µM
TGI [31]: > 100 µM
GI50 [32]: > 100 µM
TGI [32]: > 100 µM
GI50 [33]: 74.1 µM
TGI [33]: > 100 µM
GI50 [34]: > 46.9 µM
TGI [34]: > 100 µM
GI50 [35]: > 100 µM
TGI [35]: > 100 µM
GI50 [36]: 97.9 µM
TGI [36]: > 100 µM
GI50 [37]: 46 µM
TGI [37]: > 100 µM
GI50 [38]: 21.2 µM
TGI [38]: > 100 µM
GI50 [39]: > 100 µM
TGI [39]: > 100 µM
GI50 [40]: > 70.8 µM
TGI [40]: > 100 µM
GI50 [41]: > 100 µM
TGI [41]: > 100 µM
GI50 [42]: > 69 µM
TGI [42]: > 100 µM
GI50 [43]: > 39.3 µM
TGI [43]: > 54.1 µM
GI50 [56]: > 95.1 µM
TGI [56]: > 100 µM
GI50 [44]: > 100 µM
TGI [44]: > 100 µM
GI50 [45]: > 100 µM
TGI [45]: > 100 µM
GI50 [46]: > 100 µM
TGI [46]: > 100 µM
GI50 [57]: 24.9 µM
TGI [57]: > 100 µM
GI50 [47]: > 100 µM
TGI [47]: > 100 µM
GI50 [48]: 68.5 µM
TGI [48]: > 100 µM
GI50 [49]: > 100 µM
TGI [49]: > 100 µM
GI50 [50]: > 100 µM
TGI [50]: > 100 µM
GI50 [51]: > 58.7 µM
TGI [51]: > 100 µM
GI50 [52]: 99.7 µM
TGI [52]: > 100 µM
GI50 [53]: > 100 µM
TGI [53]: > 100 µM
